Laboratory results as given in ChEMBL document CHEMBL4373740, “Synthesis and biological evaluation of new MET inhibitors with 1,6-naphthyridinone scaffold” (Eur J Med Chem, 2020).

Key:
[1] = AUC (0 to infinity) in Sprague-Dawley rat at 5.0 mg/kg, ig measured for 15 min to 72 hrs by LC-MS/MS analysis; assay type: ADME, organism-based; set-up: dose 5 mg/kg, time infinity, route intragastric; details: in vivo, po
[2] = molecular target: Vascular endothelial growth factor receptor 2 (Homo sapiens, UniProt P35968); experiment: Inhibition of purified recombinant VEGFR2 kinase domain (unknown origin) using biotin as substrate preincubated for 5 mins followed by substrate addition and measured after 30 to 60 mins in presence of ATP by HTRF assay
[3] = Volume of distribution in Sprague-Dawley rat at 5.0 mg/kg, ig measured for 15 min to 72 hrs by LC-MS/MS analysis; assay type: ADME, organism-based; details: in vivo, po
[4] = AUC (0 to infinity) in Sprague-Dawley rat at 1.0 mg/kg, iv measured for 5 min to 72 hrs by LC-MS/MS analysis; assay type: ADME, organism-based; set-up: dose 1 mg/kg, time infinity, route intravenous; details: in vivo
[5] = molecular target: Tyrosine-protein kinase Fgr (Homo sapiens) (UniProt P09769); experiment: Inhibition of recombinant full length human His-tagged FGR expressed in baculovirus expression system at 1 uM using biotin as substrate preincubated for 5 mins followed by substrate addition and measured after 30 to 60 mins in presence of ATP by HTRF assay relative to control
[6] = molecular target: Serine/threonine-protein kinase pim-1 (Homo sapiens) (UniProt P11309); experiment: Inhibition of recombinant full length human His-tagged PIM1 expressed in baculovirus expression system at 1 uM using biotin as substrate preincubated for 5 mins followed by substrate addition and measured after 30 to 60 mins in presence of ATP by HTRF assay relative to control
[7] = molecular target: Mitogen-activated protein kinase 14 (Homo sapiens) (UniProt Q16539); experiment: Inhibition of recombinant full length human GST-tagged MAPK14 expressed in Escherichia coli at 1 uM using biotin as substrate preincubated for 5 mins followed by substrate addition and measured after 30 to 60 mins in presence of ATP by HTRF assay relative to control
Chain of Mitogen-activated protein kinase 14 (Homo sapiens) (Q16539 whole entry): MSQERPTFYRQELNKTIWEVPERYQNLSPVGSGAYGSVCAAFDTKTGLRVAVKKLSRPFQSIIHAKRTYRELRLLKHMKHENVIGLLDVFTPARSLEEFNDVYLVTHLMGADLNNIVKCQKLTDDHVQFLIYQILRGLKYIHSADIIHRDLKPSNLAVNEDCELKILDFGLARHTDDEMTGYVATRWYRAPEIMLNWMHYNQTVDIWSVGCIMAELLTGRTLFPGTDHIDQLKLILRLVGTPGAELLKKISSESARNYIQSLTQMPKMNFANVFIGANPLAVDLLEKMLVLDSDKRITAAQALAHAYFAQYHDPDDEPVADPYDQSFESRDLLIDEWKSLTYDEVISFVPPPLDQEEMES

Chain of Tyrosine-protein kinase Fgr (Homo sapiens) (P09769 2-529 limits assumed): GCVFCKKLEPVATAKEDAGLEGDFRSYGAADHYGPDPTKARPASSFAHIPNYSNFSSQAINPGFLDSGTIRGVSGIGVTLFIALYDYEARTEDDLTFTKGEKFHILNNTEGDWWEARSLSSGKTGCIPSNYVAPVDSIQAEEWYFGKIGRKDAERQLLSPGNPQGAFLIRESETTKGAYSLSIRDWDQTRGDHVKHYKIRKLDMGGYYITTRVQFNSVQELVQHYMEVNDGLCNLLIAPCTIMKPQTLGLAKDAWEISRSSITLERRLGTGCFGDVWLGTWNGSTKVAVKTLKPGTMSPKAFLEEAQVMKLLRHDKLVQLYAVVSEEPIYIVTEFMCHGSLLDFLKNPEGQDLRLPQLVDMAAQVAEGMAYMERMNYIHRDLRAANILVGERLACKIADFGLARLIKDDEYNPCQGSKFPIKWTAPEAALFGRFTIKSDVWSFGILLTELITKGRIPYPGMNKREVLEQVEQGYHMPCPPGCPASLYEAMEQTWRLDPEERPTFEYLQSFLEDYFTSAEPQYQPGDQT
Chain of Vascular endothelial growth factor receptor 2 (P35968 whole entry, the tested form may be a part): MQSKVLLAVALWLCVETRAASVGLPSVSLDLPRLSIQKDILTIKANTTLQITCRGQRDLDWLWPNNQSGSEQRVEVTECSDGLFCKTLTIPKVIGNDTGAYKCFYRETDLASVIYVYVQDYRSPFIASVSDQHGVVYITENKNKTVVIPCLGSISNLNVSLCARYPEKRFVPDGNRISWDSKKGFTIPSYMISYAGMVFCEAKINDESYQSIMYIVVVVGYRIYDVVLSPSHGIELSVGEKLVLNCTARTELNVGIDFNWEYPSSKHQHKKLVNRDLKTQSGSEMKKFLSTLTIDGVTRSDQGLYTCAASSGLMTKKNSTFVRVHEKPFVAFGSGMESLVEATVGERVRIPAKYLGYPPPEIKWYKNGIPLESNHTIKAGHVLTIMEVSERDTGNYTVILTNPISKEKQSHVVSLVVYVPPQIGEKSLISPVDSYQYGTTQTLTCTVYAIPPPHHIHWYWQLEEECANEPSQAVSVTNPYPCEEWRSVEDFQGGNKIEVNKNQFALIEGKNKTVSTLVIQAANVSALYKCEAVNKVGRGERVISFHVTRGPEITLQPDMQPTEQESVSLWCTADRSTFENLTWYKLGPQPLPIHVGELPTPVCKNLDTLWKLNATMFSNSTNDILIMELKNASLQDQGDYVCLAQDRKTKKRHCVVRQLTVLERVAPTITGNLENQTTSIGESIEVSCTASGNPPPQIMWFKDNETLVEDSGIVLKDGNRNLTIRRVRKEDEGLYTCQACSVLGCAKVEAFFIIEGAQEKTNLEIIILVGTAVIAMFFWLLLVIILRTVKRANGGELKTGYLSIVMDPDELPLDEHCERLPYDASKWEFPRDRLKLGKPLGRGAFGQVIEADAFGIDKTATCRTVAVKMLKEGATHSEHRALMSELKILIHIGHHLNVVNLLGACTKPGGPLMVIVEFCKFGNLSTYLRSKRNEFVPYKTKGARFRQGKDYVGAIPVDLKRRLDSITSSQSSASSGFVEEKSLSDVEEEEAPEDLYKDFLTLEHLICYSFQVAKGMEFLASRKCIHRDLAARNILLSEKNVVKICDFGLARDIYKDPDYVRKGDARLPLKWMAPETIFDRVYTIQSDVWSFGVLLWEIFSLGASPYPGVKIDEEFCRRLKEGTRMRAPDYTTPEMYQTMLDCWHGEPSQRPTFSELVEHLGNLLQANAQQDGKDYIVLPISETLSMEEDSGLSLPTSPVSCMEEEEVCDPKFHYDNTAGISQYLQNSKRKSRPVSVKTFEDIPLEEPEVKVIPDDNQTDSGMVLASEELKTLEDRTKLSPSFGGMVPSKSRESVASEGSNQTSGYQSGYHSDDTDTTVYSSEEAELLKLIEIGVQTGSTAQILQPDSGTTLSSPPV
Chain of Serine/threonine-protein kinase pim-1 (Homo sapiens) (P11309 whole entry, looked up): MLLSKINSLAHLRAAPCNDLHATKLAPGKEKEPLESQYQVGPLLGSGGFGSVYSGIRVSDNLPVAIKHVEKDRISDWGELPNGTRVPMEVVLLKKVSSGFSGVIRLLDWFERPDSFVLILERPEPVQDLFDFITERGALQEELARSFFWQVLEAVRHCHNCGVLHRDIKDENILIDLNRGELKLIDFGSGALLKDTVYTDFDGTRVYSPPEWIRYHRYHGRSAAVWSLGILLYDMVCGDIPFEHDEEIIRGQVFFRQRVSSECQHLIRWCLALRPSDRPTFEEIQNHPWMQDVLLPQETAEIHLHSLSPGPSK

AUC(0-inf) [1]: 233 µg·h/mL
IC50 [2]: 22.9 µM
Vd [3]: 0.6 L/kg
AUC(0-inf) [4]: 80600 ng·h/mL
inhibition [5]: > 80%
inhibition [6]: < 50%
inhibition [7]: < 50%
SMILES: Cn1cc(-c2ccc(F)cc2)c(=O)c2c(Nc3ccc(Oc4ccnc(NC(=O)C5CC5)c4)c(F)c3)nccc21
